From patent US7582611B2, “Motilide compounds” (Pfizer Inc., priority 2005, dated 2009)
Values after ≈ are worked out from the molar mass of the structure shown.

What was measured:
Motilin Receptor = target: T1, Motilin Receptor (Oryctolagus cuniculus, UniProt G1T803); assay: Tissue based assay for motilin agonist potency (rabbit duodenum contractility); format: cell-based; details: rabbit duodenum strips, contraction normalized to 1 μM carbachol; read-out: Motilin Receptor Agonist Activity (EC50)
T1 construct: strips of longitudinal smooth muscle were sliced from the segments; from tissue; host or cells: rabbit duodenum longitudinal smooth muscle strips
T1 sequence (G1T803 1-400): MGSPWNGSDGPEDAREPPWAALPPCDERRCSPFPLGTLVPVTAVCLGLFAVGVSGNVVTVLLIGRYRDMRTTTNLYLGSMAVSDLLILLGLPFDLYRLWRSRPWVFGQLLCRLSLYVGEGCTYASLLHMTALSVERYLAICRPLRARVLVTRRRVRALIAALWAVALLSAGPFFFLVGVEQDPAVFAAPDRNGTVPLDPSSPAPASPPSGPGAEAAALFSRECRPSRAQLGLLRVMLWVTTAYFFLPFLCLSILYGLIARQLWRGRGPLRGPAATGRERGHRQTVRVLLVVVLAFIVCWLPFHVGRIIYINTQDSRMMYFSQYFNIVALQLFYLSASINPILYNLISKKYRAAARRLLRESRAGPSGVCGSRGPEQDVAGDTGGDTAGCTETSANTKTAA
Procedure: The motilin agonist potencies of compounds of this invention were evaluated using a tissue based assay, using rabbit duodenum tissue-based contractility assay, generally following the procedure of Depoortere et al., J. Gastrointestinal Motility, 1, 150-159 (1989), the disclosure of which is incorporated herein by reference. Briefly, this method measures the ability of a compound to induce contractions in rabbit duodenal tissue, a motilin receptor-bearing tissue contractilely responsive to motilin.
Strips of rabbit duodenum were tested and qualified for use in the assay by as follows. Segments of rabbit duodenum, 20-30 cm distal to the pylorus were split longitudinally. The mucosa was removed and 2×2×15 mm strips of longitudinal smooth muscle were sliced from the segments. The strips were bathed in oxygenated Krebs solution at 37° C., with 1.5 g of tension, and contractions measured auxotonically.
The carbachol was then washed away by changing the organ bath buffer twice. The strips were washed again 20±5 minutes following the carbachol contraction. Following this last wash a dose response study was initiated within 10±5 min. Each compound tested was dissolved in dimethylsulfoxide (DMSO) to a final concentration of 10 mM. A series of seven 10× serial dilutions in water was prepared, so that the concentration of the seventh serial dilution was 1.0×10^−6 mM. The first through fifth serial dilutions of the compound were applied, starting with 200 μL of the most dilute solution. After each application, there was a wait of 2±0.5 min, until the response was stable, before the application of the next dose (the next higher concentration serial dilution). The dose was increased in 10-fold increments until a small response was observed. Subsequent doses were the increased in 2- to 5-fold increments, until the maximum response was obtained. At 2±0.5 min after the last drug addition, the strips were dosed with 1 μM carbachol.
The EC50 (concentration producing a half-maximal effect) was calculated as follows. The basal tension was subtracted from the compound-induced tension for each reading. The data points were normalized against the response obtained from 1 μM carbachol at the end of the experiment. The concentration of compound was plotted against the response and fitted to the following equation: R=(Rmax·C)/(EC50+C) where R is the contraction response, Rmax is the maximal contraction response, and C is the concentration of compound. Both R and Rmax are expressed as a fraction of the 1 μM carbachol contraction and range from 0 to 1.

[1] = tested on: Streptococcus pneumoniae ATCC 6301; assay: Evaluation of antibacterial activity (MIC, serial dilutions on 96-well microtiter plates); format: cell-based; details: ATCC6301, read-out: Antibacterial Activity (MIC, μg/mL)

Question: With `CC[C@H]1OC(=O)[C@H](C)[C@@H](OC2C[C@@](C)(OC)C[C@H](C)O2)[C@H](C)[C@@H](OC2O[C@H](C)C[C@H](N(C)CC)[C@H]2O)[C@@]2(C)CC(C)=C(O2)[C@H](C)[C@@H](O)[C@H]1C` (stereo partly drawn) [ABT-229, reference compound] as the compound, how does the EC50 (Motilin Receptor) read?
Answer: Its EC50 is 7 nM.

Question: And the MIC [1]?
Answer: Its MIC is 64 µg/mL (≈ 91.7 µM).

Question: `CC[C@H]1OC(=O)[C@H](C)[C@@H](O[C@H]2C[C@@](C)(OC)[C@@H](O)[C@H](C)O2)[C@H](C)[C@@H](O[C@@H]2O[C@H](C)C[C@H](N(C)C(C)C)[C@H]2O)[C@](C)(O)C[C@@H](C)[C@H](OC)[C@H](C)[C@@H](O)[C@]1(C)O` [Compound A-1] was tested. Which EC50 (Motilin Receptor) did it give?
Answer: The EC50 was 66 nM.

Question: For `CC[C@H]1OC(=O)[C@H](C)[C@@H](O[C@H]2C[C@@](C)(OC)[C@@H](O)[C@H](C)O2)[C@H](C)[C@@H](O[C@@H]2O[C@H](C)C[C@H](N(C)CCO)[C@H]2O)[C@](C)(O)C[C@@H](C)[C@H](OC)[C@H](C)[C@@H](O)[C@]1(C)O` [Compound A-2], which EC50 (Motilin Receptor) is on record?
Answer: Its EC50 is 140 nM.

Question: What about the MIC [1] of the same compound?
Answer: Its MIC is 64 µg/mL (≈ 82.1 µM).

Question: For `CC[C@H]1OC(=O)[C@H](C)[C@@H](O[C@H]2C[C@@](C)(OC)[C@@H](O)[C@H](C)O2)[C@H](C)[C@@H](O[C@@H]2O[C@H](C)C[C@H](N(C)C(C)C)[C@H]2O)[C@](C)(O)C[C@@H](C)[C@H](OCCO)[C@H](C)[C@@H](O)[C@]1(C)O` [Compound A-3], which EC50 (Motilin Receptor) is on record?
Answer: Its EC50 is 54 nM.

Question: What about the MIC [1] of the same compound?
Answer: Its MIC is 64 µg/mL (≈ 79.2 µM).

Question: Which results are given for `CC[C@H]1OC(=O)[C@H](C)[C@@H](O[C@H]2C[C@@](C)(OC)[C@@H](O)[C@H](C)O2)[C@H](C)[C@@H](O[C@@H]2O[C@H](C)C[C@H](N(C)C(C)C)[C@H]2O)[C@](C)(O)C[C@@H](C)[C@H](OCCOC)[C@H](C)[C@@H](O)[C@]1(C)O` [Compound A-5]?
Answer: EC50 (Motilin Receptor): 320 nM; MIC [1]: 64 µg/mL (≈ 77.9 µM)

Question: Which results are given for `CC[C@H]1OC(=O)[C@H](C)[C@@H](O[C@H]2C[C@@](C)(OC)[C@@H](O)[C@H](C)O2)[C@H](C)[C@@H](O[C@@H]2O[C@H](C)C[C@H](N(C)C[C@H](C)O)[C@H]2O)[C@](C)(O)C[C@@H](C)[C@H](OCCOC)[C@H](C)[C@@H](O)[C@]1(C)O` [Compound A-6]?
Answer: EC50 (Motilin Receptor): 1100 nM; MIC [1]: 128 µg/mL (≈ 153 µM)

Question: How did the EC50 (Motilin Receptor) turn out when `CC[C@H]1OC(=O)[C@H](C)[C@@H](O[C@H]2C[C@@](C)(OC)[C@@H](O)[C@H](C)O2)[C@H](C)[C@@H](O[C@@H]2O[C@H](C)C[C@H](N(C)C(C)C)[C@H]2O)[C@](C)(O)C[C@@H](C)[C@H](OCC#N)[C@H](C)[C@@H](O)[C@]1(C)O` [Compound A-7] was run?
Answer: The EC50 was 210 nM.

Question: And the MIC [1]?
Answer: The MIC was > 128 µg/mL.

Question: For `CCOC(=O)CO[C@@H]1[C@H](C)[C@@H](O)[C@](C)(O)[C@@H](CC)OC(=O)[C@H](C)[C@@H](O[C@H]2C[C@@](C)(OC)[C@@H](O)[C@H](C)O2)[C@H](C)[C@@H](O[C@@H]2O[C@H](C)C[C@H](N(C)C(C)C)[C@H]2O)[C@](C)(O)C[C@H]1C` [Compound A-8], which EC50 (Motilin Receptor) is on record?
Answer: The EC50 was 88 nM.

Question: And the MIC [1]?
Answer: Its MIC is 128 µg/mL (≈ 151 µM).

Question: With `CCOC(=O)CO[C@@H]1[C@H](C)[C@@H](O)[C@](C)(O)[C@@H](CC)OC(=O)[C@H](C)[C@@H](O[C@H]2C[C@@](C)(OC)[C@@H](O)[C@H](C)O2)[C@H](C)[C@@H](O[C@@H]2O[C@H](C)C[C@H](N(C)C[C@H](C)O)[C@H]2O)[C@](C)(O)C[C@H]1C` [Compound A-9] as the compound, how does the EC50 (Motilin Receptor) read?
Answer: The EC50 was 430 nM.

Question: And the MIC [1]?
Answer: The MIC was > 128 µg/mL.

Question: Which results are given for `CCOC(=O)CO[C@@H]1[C@H](C)[C@@H](O)[C@](C)(O)[C@@H](CC)OC(=O)[C@H](C)[C@@H](O[C@H]2C[C@@](C)(OC)[C@@H](O)[C@H](C)O2)[C@H](C)[C@@H](O[C@@H]2O[C@H](C)C[C@H](N(C)C3CCC3)[C@H]2O)[C@](C)(O)C[C@H]1C` [Compound A-10]?
Answer: EC50 (Motilin Receptor): 680 nM; MIC [1]: > 128 µg/mL

Question: With `CC[C@H]1OC(=O)[C@H](C)[C@@H](O[C@H]2C[C@@](C)(OC)[C@@H](O)[C@H](C)O2)[C@H](C)[C@@H](O[C@@H]2O[C@H](C)C[C@H](N(C)C[C@H](C)O)[C@H]2O)[C@](C)(O)C[C@@H](C)[C@H](OCC(=O)O)[C@H](C)[C@@H](O)[C@]1(C)O` [Compound A-11] as the compound, how does the EC50 (Motilin Receptor) read?
Answer: Its EC50 is 740 nM.

Question: And the MIC [1]?
Answer: The MIC was > 128 µg/mL.

Question: `CC[C@H]1OC(=O)[C@H](C)[C@@H](O[C@H]2C[C@@](C)(OC)[C@@H](O)[C@H](C)O2)[C@H](C)[C@@H](O[C@@H]2O[C@H](C)C[C@H](N(C)C(C)C)[C@H]2O)[C@](C)(O)C[C@@H](C)[C@H](OCC(N)=O)[C@H](C)[C@@H](O)[C@]1(C)O` [Compound A-12] was tested. Which EC50 (Motilin Receptor) did it give?
Answer: The EC50 was 52 nM.

Question: What about the MIC [1] of the same compound?
Answer: Its MIC is 64 µg/mL (≈ 77.9 µM).

Question: For `CC[C@H]1OC(=O)[C@H](C)[C@@H](O[C@H]2C[C@@](C)(OC)[C@@H](O)[C@H](C)O2)[C@H](C)[C@@H](O[C@@H]2O[C@H](C)C[C@H](N(C)C3CCC3)[C@H]2O)[C@](C)(O)C[C@@H](C)[C@H](OCC(N)=O)[C@H](C)[C@@H](O)[C@]1(C)O` [Compound A-13], which EC50 (Motilin Receptor) is on record?
Answer: The EC50 was 220 nM.

Question: What about the MIC [1] of the same compound?
Answer: The MIC was > 128 µg/mL.

Question: How did the EC50 (Motilin Receptor) turn out when `CC[C@H]1OC(=O)[C@H](C)[C@@H](O[C@H]2C[C@@](C)(OC)[C@@H](O)[C@H](C)O2)[C@H](C)[C@@H](O[C@@H]2O[C@H](C)C[C@H](N(C)C[C@H](C)O)[C@H]2O)[C@](C)(O)C[C@@H](C)[C@H](OCC(N)=O)[C@H](C)[C@@H](O)[C@]1(C)O` [Compound A-14] was run?
Answer: Its EC50 is 104 nM.

Question: And the MIC [1]?
Answer: Its MIC is > 128 µg/mL.

Question: What does the source list for `CC[C@H]1OC(=O)[C@H](C)[C@@H](O[C@H]2C[C@@](C)(OC)[C@@H](O)[C@H](C)O2)[C@H](C)[C@@H](O[C@@H]2O[C@H](C)C[C@H](N(C)C(C)C)[C@H]2O)[C@](C)(O)C[C@@H](C)[C@H](OCC(=O)N(C)C)[C@H](C)[C@@H](O)[C@]1(C)O` [Compound A-15]?
Answer: EC50 (Motilin Receptor): 660 nM; MIC [1]: 64 µg/mL (≈ 75.4 µM)

Question: What does the source list for `CC[C@H]1OC(=O)[C@H](C)[C@@H](O[C@H]2C[C@@](C)(OC)[C@@H](O)[C@H](C)O2)[C@H](C)[C@@H](O[C@@H]2O[C@H](C)C[C@H](N(C)C[C@H](C)O)[C@H]2O)[C@](C)(O)C[C@@H](C)[C@H](OCC(=O)N(C)C)[C@H](C)[C@@H](O)[C@]1(C)O` [Compound A-16]?
Answer: EC50 (Motilin Receptor): 2900 nM; MIC [1]: > 128 µg/mL

Question: `CC[C@H]1OC(=O)[C@H](C)[C@@H](O[C@H]2C[C@@](C)(OC)[C@@H](O)[C@H](C)O2)[C@H](C)[C@@H](O[C@@H]2O[C@H](C)C[C@H](N(C)C3CCC3)[C@H]2O)[C@](C)(O)C[C@@H](C)[C@H](OC)[C@H](C)[C@@H](O)[C@]1(C)O` [Compound A-47] was tested. Which EC50 (Motilin Receptor) did it give?
Answer: The EC50 was 220 nM.

Question: Which EC50 (Motilin Receptor) does the source give for `CC[C@H]1OC(=O)[C@H](C)[C@@H](O[C@H]2C[C@@](C)(OC)[C@@H](O)[C@H](C)O2)[C@H](C)[C@@H](O[C@@H]2O[C@H](C)C[C@H](N(C)C(C)C)[C@H]2O)[C@](C)(OC)C[C@@H](C)[C@H](OCC(=O)NC)[C@H](C)[C@@H](O)[C@]1(C)O` [Compound A-66] here?
Answer: Its EC50 is 400 nM.

Question: With `CC[C@H]1OC(=O)[C@H](C)[C@@H](O[C@H]2C[C@@](C)(OC)[C@@H](O)[C@H](C)O2)[C@H](C)[C@@H](O[C@@H]2O[C@H](C)C[C@H](N(C)C(C)C)[C@H]2O)[C@](C)(O)C[C@@H](C)[C@H](OCC(=O)NOC)[C@H](C)[C@@H](O)[C@]1(C)O` [Compound A-69] as the compound, how does the EC50 (Motilin Receptor) read?
Answer: The EC50 was 92 nM.

Question: How did the EC50 (Motilin Receptor) turn out when `CC[C@H]1OC(=O)[C@H](C)[C@@H](O[C@H]2C[C@@](C)(OC)[C@@H](O)[C@H](C)O2)[C@H](C)[C@@H](O[C@@H]2O[C@H](C)C[C@H](N(C)C(C)C)[C@H]2O)[C@](C)(O)C[C@@H](C)[C@H](OCCNC=O)[C@H](C)[C@@H](O)[C@]1(C)O` [Compound A-78] was run?
Answer: The EC50 was 31 nM.

Question: For `CC[C@H]1OC(=O)[C@H](C)[C@@H](O[C@H]2C[C@@](C)(OC)[C@@H](O)[C@H](C)O2)[C@H](C)[C@@H](O[C@@H]2O[C@H](C)C[C@H](N(C)C(C)C)[C@H]2O)[C@](C)(O)C[C@@H](C)[C@H](OC(=O)NC)[C@H](C)[C@@H](O)[C@]1(C)O` [Compound A-79], which EC50 (Motilin Receptor) is on record?
Answer: Its EC50 is 400 nM.
